Test results taken from ChEMBL document CHEMBL3507680, “University of Dundee, Gates Library screen for HepG2 cell viability”.

Experiment: Human HepG2 cell viability assay in 384 well format
Assay type: toxicity, cell-based
Parameters: dose 125 nL, time 70.5 hour; cytotoxicity at 70.5 h: concentration not given beside the values
Settings: HepG2 cells, read-out: Inhibition

SMILES	cytotoxicity at 70.5 h [%]
Cc1ccc(C(=O)NCC2CCN(Cc3ccccc3C#N)C2)cn1 (stereo not drawn)	-5.59
Cc1nc(CN)cc(NCc2ccccc2-n2cncn2)n1	25
CC(C(=O)N(Cc1ccc(F)cc1)CC(F)(F)F)S(C)(=O)=O (stereo not drawn)	-1.63
CCOCC(=O)N1Cc2nnn(C)c2C(COCc2ccccn2)C1 (stereo not drawn)	9.65
Fc1ccc(CN2Cc3nccn3CC(CN3CCOCC3)C2)cc1 (stereo not drawn)	-8.01
COc1ccc(CC(=O)N2CCC(c3nnc4n3CCC4)CC2)cc1F	-5.72
Cc1nc(CSCCC(=O)NCC(=O)NC(C)C)cs1	1.26
c1cc(-c2nnc([C@H]3CCNC3)o2)ccn1	-2.31
Cn1ccnc1CN1CCC(c2nc3ccccc3n2C)CC1	28.7
CCc1nc(C2CCCN(C(=O)c3cccnc3O)C2)no1 (stereo not drawn)	-0.758
CCn1ccnc1CN(C)CC1CCCN1c1cccnn1 (stereo not drawn)	10
COCc1n[nH]/c(=N\C(=O)c2c3c(nc4onc(C)c24)CCC3)s1	-3.26
CCCNC(=O)c1ccc2c(c1)C(=O)N(CC(C)C)C2=O	-1.77
CC(=O)Nc1sccc1C(=O)C(C)(C)C	16.1
CC(C1CCN(Cc2ccc(N(C)C)nc2)CC1)N1CCOCC1 (stereo not drawn)	8.61
Cc1nsc(NC(=O)N2CCCCC2CCO)n1 (stereo not drawn)	-6.53
CN(C)c1ncccc1CNS(=O)(=O)c1cc(F)cc(F)c1	-6.43
Cc1ccc(C(=O)N2CCCC(NC(=O)C(C)C)C2)c(O)c1 (stereo not drawn)	-3.17
Cc1ccc(C(NC(=O)Cn2cc(C3CC3)nn2)C2CC2)cc1 (stereo not drawn)	-7.56
Cc1cc(NC(=O)CNC(C)(C)c2ccccc2)on1	17.8
Cc1ccc(CN2CCC3(CCC3NC(=O)c3ccn(C)c3)CC2)s1 (stereo not drawn)	0.0423
Cn1ccc(C(=O)N2CCCCC2c2cc(CCO)[nH]n2)n1 (stereo not drawn)	-1.7
O=C(CN1CCNCC1)NCc1ccc2sccc2c1	3.14

SMILES	cytotoxicity at 70.5 h [%]
Cc1nc(CC(=O)N2CCCC(n3ccnc3C(C)C)C2)cs1 (stereo not drawn)	-6.07
COc1ccccc1OC1CCN(C(=O)CCCn2ccnc2)CC1	-6.19
Cc1cc(C)nc(N2CCC(OCCN3CCCCC3)C2)n1 (stereo not drawn)	8.57
CCc1c(C)nc(-n2nc(C3CC3)cc2NC(C)=O)[nH]c1=O	1.53
CN1C(=O)C2(CCN(S(=O)(=O)C3CC3)CC2)c2ccccc21	-2.07
NC(=O)c1cc(-c2cccc(C(=O)O)c2)cs1	-15.4
Cc1nn(C)c(N(C)C)c1CNCc1ccc(N(C)C)nc1	-2.4
Cc1nc(COC[C@@]23CCC[C@@H]2CN(CC2CCOCC2)C3)cs1	-9.04
Cc1nnc(NCCc2coc(-c3ccccc3)n2)c(C#N)c1C	-2.75
CN1CCN(C(=O)COCc2nc(-c3ccncc3)no2)CC1	17.1
O=C(COc1ccccc1F)NCCC(O)c1ccco1 (stereo not drawn)	-3.87
COC(=O)c1ccc(C(=O)NS(=O)(=O)c2cncc(Br)c2)cc1	-3.96
CN(C)CC(=O)N1CCC2(CC1)COCCN(c1ncccn1)C2	22.5
Cc1ccc(F)c2c1CCCN2Cc1cc(=O)n(C)c(=O)n1C	-7.78
CC(C)N1CCC(C(=O)N[C@H](C(=O)O)c2cccc(F)c2F)CC1	-1.13
CC(C)N(C)C(=O)C1CSCN1S(=O)(=O)c1cccs1 (stereo not drawn)	-8.56
Cc1csc(CCNC(=O)c2ccc(N(C)C)c(F)c2)n1	13.6
Cn1cc(CN2CC[C@H]3C[C@H](c4nc(C5CC5)cs4)O[C@@H]3C2)cn1	-12.5
CC(C)CC(=O)N1CC(=O)c2sc(Nc3ccc(F)cc3F)nc2C1	0.35
COCCNC(=O)[C@@]12CCO[C@@H]1CCN(Cc1ccc(OC)cc1)C2	-5.1
COCCOc1cccc(CNCc2c(C)nn(C)c2N(C)C)c1	-2.1
COCCN(Cc1ccccn1)C(=O)Nc1cccnc1-n1cccn1	18.4
O=C1N(CC2CC2)C2(CCSCC2)NC12CCCC2	30.4

SMILES	cytotoxicity at 70.5 h [%]
CC(=O)c1ccc(N2CCC3(CC2)CC(=O)N(C)C3)nc1	4.13
O=C(Nc1ccccc1CCc1ccccn1)NC1CCOCC1	0.573
OC(CN(Cc1ccccc1)Cc1ccncc1)c1ccco1 (stereo not drawn)	26
CCCNC(=O)CCNC(=O)N1CCc2c(F)ccc(F)c2C1	3.2
CC(=O)N1CCC(Cc2cccc(-c3c(C)noc3C)n2)C1 (stereo not drawn)	-7.61
CC(C)OC(=O)c1ccc(Cl)c(NC(=O)NCCN2CCOCC2)c1	-7.91
COc1cccc(CC(=O)N2CC[C@@H]3NC(=O)CC[C@@H]32)c1	-0.893
CC(C)NC(=O)NCC(Cc1ccc(F)cc1)C(N)=O (stereo not drawn)	21.5
CNC(=O)C1Cn2ccnc2C2(CCN(C(=O)c3ccccn3)CC2)O1 (stereo not drawn)	-2.1
Cc1nn(C)c(C)c1CCC(=O)N(C)Cc1ccc(C#N)cc1	1.66
CC(=O)NCc1noc2c1CN(Cc1cccs1)CC2	-1.08
CC(CN1CCCC1=O)NC(=O)Nc1cccnc1-n1cccn1 (stereo not drawn)	35.4
c1cc(CNCC2CNc3ccnn3C2)cc(N2CCCCC2)n1 (stereo not drawn)	25.3
CCOC(=O)NCCNC(=O)c1cc2ccccc2nc1N1CCCC1	2.35
CCCc1cc(N2CCC(Cc3cccc(C(N)=O)c3)C2)nc(C)n1 (stereo not drawn)	-5.44
COc1cccc(-c2csc(Cn3ccc(=O)[nH]c3=O)n2)c1	19.5
Cn1cnc2c1CCN(Cc1nc(-c3ccsc3)no1)C2	32.4
CC(C)(C)c1ncc(C(=O)NCCNC(=O)c2ccccc2)s1	1.17
Cc1ccc(-c2csc3c(=O)[nH]c(N4CCCC(C(=O)O)C4)nc23)cc1 (stereo not drawn)	3.06
c1ccc(-c2cc(CN3CCC(c4ccn[nH]4)CC3)on2)cc1	-7.56
CC(C)n1ccnc1CN1CCCN(C(=O)CC2C=CCC2)CC1 (stereo not drawn)	31.4
Cc1cccc(C(=O)N2C[C@@H]3CCN(C(C)C)C[C@@H]3C2)c1	19
CCNc1nc(-c2cccnc2)c(-c2ccnc(N3CCCC3)n2)s1	-6.77

SMILES	cytotoxicity at 70.5 h [%]
COc1cccc(CN2CCC3(CCN(c4ncc(C)cn4)CC3)C2)c1	1.49
CN(C)C(C(=O)NCC1(O)CCCCC1)c1cccc(F)c1 (stereo not drawn)	-2.16
CCn1nnc2c1C(COC)CN(Cc1ccsc1)C2 (stereo not drawn)	-0.304
Cc1c(C(=O)N2CCCC(C(=O)c3nccn3C)C2)c[nH]c(=O)c1C#N (stereo not drawn)	-7.06
Cc1ccc(C)c(OCCN(C)C(=O)C2CCCN2C(N)=O)c1C (stereo not drawn)	-2.41
CCOCCN1CCO[C@H]2[C@H](OCc3ccccn3)CC[C@@H]21	-11
Cc1noc(C)c1C(=O)N1CCC(Nc2cccnn2)CC1	0.523
c1ccc(NC[C@@H]2CCC[C@@H]3CN(Cc4cccnc4)C[C@@H]32)nc1	-5.9
CCNC(=O)Cc1ccc(NC(=O)NC(CC)CC)cc1	1.05
O=C(O)c1ccc(N2CCC(Oc3cccc(F)c3)CC2)nc1	14.5
CN(C)c1nc2sc(C(=O)N3CCNC(=O)CC3)cc2s1	-10.2
O=C(NCC(O)c1ccc(F)cc1F)c1cccnc1O (stereo not drawn)	-15.5
CCCc1nnc(NCCc2noc(C3CCCC3)n2)o1	9.03
COc1cnc(C2(O)CCN(C(=O)c3ccco3)CC2)c(OC)n1	-9.83
COCCC(C)NCc1ccccc1-n1ccnc1 (stereo not drawn)	-3.09
CC(=O)NCCNC(=O)CNC1CCCN(c2ccc(C)nn2)C1 (stereo not drawn)	17.7
O=C(CCn1cc(Cl)cn1)N1CCC2(CC1)OCCCC2O (stereo not drawn)	12
Cc1cccc(N2CCN(C(=O)NC(C)c3nncn3C)CC2)c1C (stereo not drawn)	-3.82
CS(=O)(=O)N1CCC(N2CCCC2c2ccccn2)CC1 (stereo not drawn)	2.33
Cc1noc(C)c1CN1C[C@H]2CNC[C@H]2C1	-2.52
COc1ccc(C(C(=O)O)N2CCN(C3CCCC3)CC2)cc1C (stereo not drawn)	-1.67
Cc1ccccc1-c1ncc(CNCc2csc(C(C)C)n2)s1	-5.31
CCc1ccc(S(=O)(=O)N2CCCC3(CCCN3S(C)(=O)=O)C2)cc1 (stereo not drawn)	22.3

SMILES	cytotoxicity at 70.5 h [%]
Cc1cc(-c2cnn(CCNC(=O)c3snnc3C)c2C2CC2)on1	-2.4
COCC(=O)Nc1ccc([C@@H](O)[C@H]2COCC(=O)N2C)cc1	-1.45
Cc1ccc(NC(=O)NCCCc2n[nH]c(N)c2C#N)cc1	-3.1
COC1CCN(C(=O)C2CCCC2)CC(=O)N(C)c2ccccc21 (stereo not drawn)	22.2
O=C(NCC1CCCCC1)N1C[C@H]2C[C@H](C(=O)N3CCCC3)[C@@H](C1)O2	-1.84
COc1cc(C2(C(=O)NC3CCC4(CC3)OCCO4)CC2)ccc1C	-4.1
Cc1cc(C)n(CC2CN(CCOc3ccccc3C#N)CCO2)n1 (stereo not drawn)	-5.02
Cc1cnn(CC2CN(Cc3nccn3CC(F)(F)F)CCO2)c1 (stereo not drawn)	26.3
COc1ncccc1C(=O)N1CC[C@H]2C[C@@H](c3noc(C)n3)O[C@@H]2C1	-8.55
CC(C)Cc1cc(C(=O)N2CC(OCc3ccccc3F)C2)n(C)n1	-2.8
Cc1ccc(C(CNCc2cccc3c2OCO3)N2CCOCC2)o1 (stereo not drawn)	-17
COC(=O)C(NC(=O)CCOC(C)C)c1cc(F)ccc1F (stereo not drawn)	18.1
CN(Cc1ccsc1)C(=O)CN1CCc2c(ncn2C)C1	17.8
CCCc1nc(CN(CC)C(=O)c2ccc3c(c2)nnn3C)no1	-2.39
Cc1cc(-c2nn(C)c(Cl)c2CN2CCN(C)C(C(=O)O)C2)no1 (stereo not drawn)	-5.8
CN(C)C(=O)c1n[nH]c2c1CN(Cc1nccs1)CC2	-1.73
CNC(=O)CN(C)C(=O)c1cc(Cl)c(I)cc1OC	-18.4
CC(C)NC(=O)CCNC(=O)Nc1ccc(-n2cncn2)c(F)c1	-11.5
Cc1cccnc1N1CC2(CCN(Cc3cccnc3)C2)C1	16.3
Cc1oncc1C(=O)N1CC[C@H]2[C@@H]1CCC(=O)N2CC1CCOCC1	-1.77
O=C(c1ccccc1N1CCOCC1)N1CCCC(n2cccn2)C1 (stereo not drawn)	1.3
